IC50 data for 1 compound are collected here from BindingDB's records for patent US20240209019 (Ardelyx, 2024).

This test has as its target T1, 11-beta-hydroxysteroid dehydrogenase type 2 (Homo sapiens, UniProt P80365).
T1 sequence (P80365 whole entry): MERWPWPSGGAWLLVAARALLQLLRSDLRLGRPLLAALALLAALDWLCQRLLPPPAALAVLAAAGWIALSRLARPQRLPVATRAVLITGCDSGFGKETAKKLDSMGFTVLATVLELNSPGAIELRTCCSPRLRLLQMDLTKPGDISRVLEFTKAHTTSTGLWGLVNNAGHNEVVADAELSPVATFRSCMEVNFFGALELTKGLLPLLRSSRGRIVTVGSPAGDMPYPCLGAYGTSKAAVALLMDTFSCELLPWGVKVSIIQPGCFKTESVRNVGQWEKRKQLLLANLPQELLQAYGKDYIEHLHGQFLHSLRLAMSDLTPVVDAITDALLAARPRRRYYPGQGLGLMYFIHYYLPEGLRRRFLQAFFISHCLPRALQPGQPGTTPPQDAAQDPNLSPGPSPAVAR
Put plainly: HSD2 Activity. How it is done:
Compounds were diluted in DMSO and serial dilutions prepared by titrating in DMSO. Compounds were then diluted into DMEM/F12. Transwell plates containing descending colon cultures were washed twice with DMEM/F12 and compound was added to the apical compartment. Cells were incubated with test compound for 30 minutes at 37° C., 5% CO2 to equilibrate across the cell membrane. A second compound plate was prepared in which the serially diluted compounds in DMSO were diluted into DMEM/F12 containing 40 nM cortisol. Following the 30 minute pre-incubation step, the apical media was aspirated and compounds diluted in DMEM/F12 with 40 nM cortisol were added to the apical side of the transwell. The plate was then incubated for four hours at 37° C., 5% CO2. Cortisol levels were measured using a cortisol HTRF assay kit as described by the manufacturer (Cisbio).

`CCCOCCOCCOCCOC(=O)O[C@H]1CC[C@@]2(C)[C@@H](CC[C@]3(C)[C@@H]2C(=O)C=C2[C@@H]4C[C@@](C)(C(=O)O)CC[C@]4(C)CC[C@]23C)[C@]1(C)C(=O)O` [US20240209019, Compound noid16] yielded an IC50 of more than 10 µM.

A word on the IC50: it is the concentration at which inhibition is half-maximal. A low value points to inhibition by little substance.
